From patent publication US9701709B2 (REATA PHARMACEUTICALS, INC., priority 2012, dated 2017)
Marks after values point to notes of the source that are not given here.

How the values were obtained:
Type in all cases: physicochemical
[1] = Polymorph screen: crystallization and drying experiments (FT-Raman, PXRD, TG-FTIR, DSC)
Description: A preformulation and polymorphism study was performed for compound 63415. […] A total of 30 crystallization experiments, including phase equilibrations, drying experiments and other techniques, were carried out. All obtained solids were characterized by FT-Raman spectroscopy. All new forms were characterized by PXRD and TG-FTIR, and optionally by DSC and DVS.
All obtained materials were characterized by FT-Raman spectroscopy; selected samples were also characterized by PXRD.
Suspension equilibration experiments were carried out in one solvent and eleven solvent mixtures (Table 13). Suspensions of ˜100 mg of PP415-P1 in 0.2-2.0 mL of the selected solvents were prepared and shaken for 4-15 days at 22-24° C. The solids were recovered and characterized by FT-Raman spectroscopy; most were characterized also by PXRD.
Hot solutions of PP415-P1 were prepared in one solvent and four solvent mixtures (Table 14). […] In two cases (-P22, -P23) no solid precipitated, even after storage at 4-5° C. for two days. Here, the solvent was evaporated under N2 flow at r.t. The solids were recovered and characterized by FT-Raman spectroscopy and for those with spectra different from the amorphous starting material, FT-Raman class 1, also by PXRD.
Clear solutions of PP415-P1 were prepared in three solvent mixtures (Table 15). The solvents were then slowly evaporated at r.t. under ambient conditions. However, in two of the three experiments (-P15 and -P17) white solid precipitated before evaporation began. The obtained solids were examined by FT-Raman spectroscopy and PXRD.
At least one sample of each class was dried under vacuum with the aim to desolvate the solvates and to obtain non-solvated crystalline forms of 63415 (Table 16). The dried materials were characterized further by FT-Raman, PXRD, and TG-FTIR.
Bruker RFS100 with OPUS 6.5 software; Nd:YAG 1064-nm excitation, Ge detector, 3500-100 cm^−1 range; typical measurement conditions: 100-300 mW nominal laser power, 64-128 scans, 2 cm^−1 resolution.
Stoe Stadi P; Mythen1K Detector; Cu—Kα radiation; standard measurement conditions: transmission; 40 kV and 40 mA tube power; curved Ge monochromator; 0.02°2θ step size, 12 s or 60 s step time, 1.5-50.5°2θ or 1.0-55°2θ scanning range; detector mode: step scan; 1°2θ or 6°2θ detector step; standard sample preparation: 10 to 20 mg sample was placed between two acetate foils; sample holder: Stoe transmission sample holder; the sample was rotated during the measurement.
Netzsch Thermo-Microbalance TG 209 with Bruker FT-IR Spectrometer Vector 22; aluminum crucible (with microhole), N2 atmosphere, 10 K/min heating rate, 25-250° C. or 25-350° C. range.
Perkin Elmer DSC 7; gold crucibles (closed or with microhole), sample filled in an N2 environment, 10 K/min heating rate, −50 to 250° C. or 350° C. range, at times quench cooling (at −200 K/min) to −50° C. between scans.

[2] = Approximate solubility by manual dilution; conditions: r.t.
Description: The approximate solubility of the PP415-P1 starting material was measured in twelve solvents and four solvent mixtures at r.t. by manual dilution combined with visual observation (Table 10). Due to the experimental error inherent in this method, the solubility values are intended to be regarded as rough estimates and are to be used solely for the design of crystallization experiments. All solvent mixtures are listed as ratios by volume (v/v).
Approximate Solubility Determination: Approximate solubilities were determined by a stepwise dilution of a suspension of about 10 mg of substance in 0.05 mL of solvent. […] Due to the experimental error inherent in this method, the solubility values are intended to be regarded as rough estimates and are to be used solely for the design of crystallization experiments.

[3] = Dynamic vapor sorption (hygroscopicity)
Description: Projekt Messtechnik Sorptions Prüfsystem SPS 11-100n or Surface Measurement Systems DVS-1. The sample was placed on an aluminum or platinum holder on top of a microbalance and allowed to equilibrate for 2 h at 50% r.h. before starting the pre-defined humidity program: • (1) 50→0% r.h. (5%/h); 5 h at 0% r.h. • (2) 0→95% r.h. (5%/h); 5 h at 95% r.h. • (3) 95→50% r.h. (5%/h); 2 h at 50% r.h.

[4] = Chemical stability in solvents and aqueous surfactant media (HPLC); conditions: diluent 0.1% formic acid in MeCN, within ~24 hours; start 99.9%
Description: The chemical stability of the amorphous form was investigated in different solvents over the course of seven days.
Solutions/suspensions with a concentration of 1 mg/mL were prepared in four organic solvents (acetone, MeOH, MeCN, EtOAc) and three aqueous surfactant media (1% aq. SDS, 1% aq. Tween 80, 1% aq. CTAB).
Four separate solutions/suspensions were prepared for each solvent, equilibrated for 6 h, 24 h, 2 d, and 7 d and subsequently analyzed by HPLC.
Due to this effect, the samples measured towards the end of the sequence (set up in the following order: 7 d, 2 d, 24 h, 6 h), might be affected and the obtained area-% might be underestimated.
Four samples of 1.0 mg of the PP415-P1 material in 1.0 mL of the respective solvent were prepared. The resulting suspensions/solutions were equilibrated in a temperature-controlled Eppendorf Thermomixer Comfort shaker for 7 d, 2 d, 24 h, and 6 h at 25° C. at a shaking rate of 500 rpm. If necessary, the solid phase was separated by filter centrifugation (0.5-μm PVDF membrane). The filtrates were diluted in the diluent (0.1% formic acid in MeCN) to concentrations≦0.2 mg/mL (unknown and likely lower for suspensions) and examined using the HPLC method given in Table 29. As reference, the PP415-P1 material was diluted in the diluent to a concentration of 0.25 mg/mL and added to the beginning and end of the HPLC sequence.

[5] = Storage stability of the amorphous form (PXRD)
Description: To learn more about its fundamental properties and physical stability, the amorphous form of 63415 was stressed by storage at elevated temperatures and relative humidities.
Samples of the amorphous form (the PP415-P1 starting material) were stored open at 25° C./˜62% r.h. (over saturated aqueous solution of NH4NO3) and 40° C./˜75% r.h. (over saturated aqueous solution of NaCl) and closed at 60° C. and 80° C. (Table 12). At time points 0 w, 1 w, 2 w, and 4 w the samples were examined by PXRD and compared to the starting material, PP415-P1.

With `CC1(C)CC[C@]2(NC(=O)C(C)(F)F)CC[C@]3(C)[C@H](C(=O)C=C4[C@@]5(C)C=C(C#N)C(=O)C(C)(C)[C@@H]5CC[C@]43C)[C@@H]2C1` [PP415-P1] the “TG-FTIR: decomposition at T” value [1] was “decomposition at T > 290 °C”, the “DSC: Tg, 1st scan” value ([1]; 1st scan) was “DSC: 1st scan: Tg = 152.7 °C” and the “DSC: Tg, 2nd scan” value ([1]; 2nd scan) was “Tg = 149.7 °C (ΔCp = 0.45 J/g ° C.)”. The “TG-FTIR: mass loss (solvent)” value ([1]; first or main loss, solvent and temperature range per sample as printed) was “TG-FTIR: loss of ~0.9 wt.-%”, the “Solubility S” value ([2]; DCM) was “S > 200 mg/mL” and the “Solubility S” value ([2]; DEE, dissolved completely overnight) was “S > 1^d mg/mL”. For the same compound, the “Solubility S” value ([2]; DMF) was “S > 210 mg/mL”, the “Solubility S” value ([2]; EtOAc) was “S > 210 mg/mL” and the “Solubility S” value ([2]; H2O) was “S < 1 mg/mL”. The “Solubility S” value ([2]; MeCN) was “S > 230 mg/mL”, the “Solubility S” value ([2]; MeCN/H2O (2:3)) was “S < 1 mg/mL” and the “Solubility S” value ([2]; MeOH) was “S < 210 mg/mL”. For the same compound, the “Solubility S” value ([2]; acetone) was “S > 230 mg/mL”, the “Solubility S” value ([2]; heptane) was “S < 1 mg/mL” and the “Solubility S” value ([2]; toluene) was “S > 200 mg/mL”. The “Solubility S” value ([2]; toluene/DEE (1:1), precipitation after ~1d) was “S > 220 mg/mL”, the “DVS: hygroscopicity class” value [3] was “DVS: slightly hygroscopic; Δm = (mass increase <2% but ≧0.2%)” and the “DVS: total mass gain from 0% r.h. to 95% r.h.” value ([3]; 0% r.h. to 95% r.h.) was “mass gain of 2.1 wt.-% from 0%”. The “DVS: Δm (50%→85% r.h.)” value ([3]; 50%→85% r.h.) was “+0.4% (50%→85% r.h.); total”, the “Δm (50%→85% r.h.)” value ([3]; DVS) was “+0.4%” and the “post-DVS Raman and/or PXRD: solid form” value ([3]; after DVS) was “unchanged”. For the same compound, the “Hygroscopicity classification (DVS)” value ([3]; mass gain at 85% r.h.) was “slightly hygroscopic (mass increase <2% but ≧0.2%)”, the “area-% of reference sample at end of HPLC sequence, 242 nm” value [4] was 99.5% and the “area-% of reference sample at end of HPLC sequence, 254 nm” value [4] was 99.3%. For the same compound, the “PXRD Result after storage” value ([5]; closed, 60° C., 1 w) was “amorphous”, the “PXRD Result after storage” value ([5]; closed, 60° C., 2 w) was “amorphous” and the “PXRD Result after storage” value ([5]; closed, 60° C., 4 w) was “amorphous”. For the same compound, the “PXRD Result after storage” value ([5]; closed, 80° C., 1 w) was “amorphous”, the “PXRD Result after storage” value ([5]; closed, 80° C., 2 w) was “amorphous” and the “PXRD Result after storage” value ([5]; closed, 80° C., 4 w) was “amorphous”. For the same compound, the “PXRD Result after storage” value ([5]; open, 25° C./~62% r.h., 1 w) was “amorphous”, the “PXRD Result after storage” value ([5]; open, 25° C./~62% r.h., 2 w) was “amorphous” and the “PXRD Result after storage” value ([5]; open, 25° C./~62% r.h., 4 w) was “amorphous”. For the same compound, the “PXRD Result after storage” value ([5]; open, 40° C./~75% r.h., 1 w) was “amorphous”, the “PXRD Result after storage” value ([5]; open, 40° C./~75% r.h., 2 w) was “amorphous” and the “PXRD Result after storage” value ([5]; open, 40° C./~75% r.h., 4 w) was “amorphous”.
